From patent publication US11939398B2, “Modified peptides for use in treating neurodegenerative disorders” (Neuro-Bio Ltd, priority 2016, dated 2024)
Where a SMILES comes first, the peptide text is derived from it.

Key:
[1] = molecular target: α7 nicotinic-receptor (Homo sapiens, UniProt P36544); settings: cited from earlier work
[2] = stability / degradation in rat blood; format: in vitro ADME; settings: rat blood diluted with PBS
Experimental: (§1) Test compounds were spiked at 10 μg/ml into either PBS or blood (Male Wistar rat or Human) diluted with PBS, and a series of samples taken according to the following scheme:
(§2) Procaine, a compound known to be unstable in blood, was included as a positive control (ran with 5-fold diluted blood only). The sampling procedure was to add an aliquot to ice-cold acetonitrile, centrifuge, and store the supernatant on dry ice until analysis. Analysis by UHPLC-TOF mass spectrometry using electrospray ionisation was performed on the same day as the incubations were performed.

[3] = test system: PC12 cells; experiment: Calcium fluorometry (Fluo-8, PNU282987-induced calcium increase) in PC12 cells; format: cell-based; settings: in conjunction with T30, PC12 cells
Experimental: PC12 cells were plated in 200 μl of Dulbecco's Modified Eagle's medium (DMEM) plus 2 mM of L-glutamine medium the day before the experiment in 96 well plates. On the day of the experiment, the Fluo-8 solution (Abcam) was prepared as described by the provider by adding 20 μl of Fluo-8 in the assay buffer that contains 9 ml of Hank's Balanced Salt Solution (HBSS) and 1 ml of pluronic F127 Plus. Subsequently, 100 μl of growth medium was removed and 100 μl of Fluo-8 solution were added. Treatments with T30 in conjunction with NBP14 or Tri peptides were added and incubated for 30 minutes in the incubator and 30 minutes room temperature. After 1 h, the plate was placed in the fluorescence plate reader (Fluostar, Optima, BMG Labtech, Ortenberg, Germany). Before reading the fluorescence, PNU282987 1 μM, an alpha7 specific agonist of the nicotinic receptors, was prepared and placed in the Fluostar injector. For each well, the reading was formed by a basal fluorescence reading followed by PNU282987 injection that induced an increase of calcium via nicotinic receptors.
In each of the different cell techniques, the statistics analysis was performed with the average of the percentage values of 3 or more experiments. Comparisons between multiple treatment groups and the same control were performed by one-way analysis of variance (ANOVA) and Tukey's post-hoc tests using GraphPAD Instat (GraphPAD software, San Diego, California). Statistical significance was taken at a p value<0.05.

[4] = test system: PC12 cells; experiment: AChE activity assay (Ellman reagent) in PC12 cells treated with T30; format: cell-based; settings: combined with T30 (1 μM)
Experimental: AChE activity was measured using the Ellman reagent that measures the presence of thiol groups as a result of AChE activity. In the case of the G4 experiment, AChE (G4) activity was tested alone and also together with either NBP14 or Tri peptides. PC12 cells were plated the day before the experiment as for the cell viability assay. Cells were treated with T30 (1 μM) alone or combined with NBP14 or Tri peptide (0.5 μM). After treatment, supernatant (perfusate) of each treatment was collected and 25 μL from each condition were added to a new flat bottomed 96 well plate followed by the addition of 175 μl of Ellman reagent (Solution A: KH2PO4 139 mM and K2HPO4 79.66 mM, pH 7.0; solution B (substrate): Acetylthiocholine Iodide 11.5 mM; Solution C (Reagent): 5,5′-dithiobis(2-nitrobenzoic acid) 8 mM and NaHCO3 15 mM). The Ellman reagent was prepared as a mixture of the 3 solutions in a ratio 33(A):3(B):4(C). Absorbance measurements were taken for an interval of 60 minutes across experiments at 405 nm in a Vmax plate reader (Molecular devices, Wokingham, UK).
In each of the different cell techniques, the statistics analysis was performed with the average of the percentage values of 3 or more experiments. […]

[5] = test system: rat basal forebrain slices; experiment: voltage-sensitive dye imaging (VSDI) on brain slices, Example 5; format: cell-based
Experimental: Male Wistar rats (14 days old) were anaesthetised using isoflurane (˜15 ml, 100% w/w). Isoflurane was applied to the cotton bed at the bottom of an anaesthetic chamber (glass box 20×15×15 cm) where rats were then placed for approximately 45 s until complete anaesthesia was reached. The hind paw of each anaesthetised rat was pinched to check for the appropriate depth of anaesthesia. Upon confirmation of anaesthesia, rats were quickly decapitated, with the brain being quickly removed and immersed in ice cold oxygenated ‘slicing’ artificial cerebrospinal fluid (aCSF in mmol: 120 NaCl, 5 KCL, 20 NaHCO3, 2.4 CaCl2 2 MgSO4, 1.2 KH2PO4, 10 glucose, 6.7 HEPES salt and 3.3 HEPES acid; pH=7.1). Coronal slices (400 μm thick) were then taken from a block of brain containing the basal forebrain, namely the MS-dBB complex (between +9.20 and +9.48 mm Interaural and +0.48 and +0.2 mm Bregma, FIG. 4A) and the somatosensory barrel field cortex (SiBF, between +8.08 and +7.20 mm Interaural and −0.92 mm and −1.80 mm Bregma) (Paxinos and Watson, 1998) using a Vibratome (Leica VTi000S).
Slices were then transferred to a bubbler pot containing oxygenated aCSF at room temperature (recording aCSF in mmol: 124 NaCl, 5 KCL, 20 NaHCO3, 2.4 CaCl2 2 MgSO4, 1.3 KH2PO4, 10 glucose; pH=7.4) which was identical to that used in VSDI (voltage sensitive dye imaging) recording. Slices were then left for approximately 1-1.5 hours before preparing them for VSD staining.
Slices were placed in a dark, high humidity chamber filled with aCSF bubbled with 95% O2, 5% CO2. Once there, the dye solution (4% 0.2 mM styryl dye pyridinium 4-[2-[6-(dibutylamino)-2-napthalenyl]-ethenyl]-1-(3-sulfopropyl)hydroxide (Di-4-NEPPS), Invitrogen, Paisley, UK in 48% aCSF, 48% foetal bovine serum, 3.5% DMSO and 0.4% cremophore EL) (Tominaga et al., 2000) was applied to the slices for 20-25 minutes before being transferred back to a bubbler pot containing oxygenated aCSF kept at room temperature for 30 minutes.
When starting the VSDI recordings, slices were placed in the recording bath on a small piece of filter paper to allow the flow of oxygenated aCSF on the underside of the slice and in order to keep it alive. The slice was then weighed down by a home-made plastic grid that was placed on top of the slice. […] For the acquisition of VSD data, 2 dimensional images, equivalent to 88×60 pixels, were recorded using the MiCamo2 High Resolution camera (Brain Vision, Japan) with BV_Analyze imaging software. […] Light was generated using an Osram halogen xenophot 64634 HLX EFR Display/Optic lamp and was filtered to emit green (530±10 nm) light using a MHF-G150LR (Moritex Corporation) coupled to the MiCamo2 High resolution imaging system and filtered the emitted fluorescence through a >590 nm high pass filter. […]

[6] = stability / degradation in human blood; format: in vitro ADME; settings: human blood diluted with PBS
Experimental: as §1, §2

Sequence of α7 nicotinic-receptor (P36544 23-502): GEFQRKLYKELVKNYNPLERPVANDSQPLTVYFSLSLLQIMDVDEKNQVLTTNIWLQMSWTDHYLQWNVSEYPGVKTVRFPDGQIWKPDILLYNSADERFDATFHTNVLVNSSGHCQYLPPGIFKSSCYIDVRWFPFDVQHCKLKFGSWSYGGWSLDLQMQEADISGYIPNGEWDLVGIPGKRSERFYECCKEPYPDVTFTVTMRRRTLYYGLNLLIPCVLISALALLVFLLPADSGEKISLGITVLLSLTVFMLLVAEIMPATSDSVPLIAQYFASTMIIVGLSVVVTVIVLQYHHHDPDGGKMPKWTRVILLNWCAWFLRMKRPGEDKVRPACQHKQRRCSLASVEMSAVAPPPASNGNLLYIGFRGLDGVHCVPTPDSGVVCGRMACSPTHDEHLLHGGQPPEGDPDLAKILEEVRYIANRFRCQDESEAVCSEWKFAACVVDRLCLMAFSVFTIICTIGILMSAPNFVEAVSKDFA

## COc1ccc2c3c1O[C@H]1C[C@@H](O)C=C[C@@]31CCN(C)C2 [galanthamine]
[1]
  affinity for the α7 nicotinic-receptor: 10 µM

## CSCC[C@@H]1NC(=O)[C@H](Cc2ccc(O)cc2)NC(=O)[C@H](CO)NC(=O)[C@H](CO)NC(=O)[C@H](Cc2c[nH]c3ccccc23)NC(=O)[C@H](CCCNC(=N)N)NC(=O)[C@H](Cc2c[nH]cn2)NC(=O)[C@H](Cc2ccccc2)NC(=O)[C@H](CCC(=O)O)NC(=O)[C@H](C)NC(=O)[C@H](CCCCN)NC(=O)[C@H](Cc2c[nH]c3ccccc23)NC(=O)[C@H](Cc2c[nH]cn2)NC(=O)[C@H](C(C)C)NC1=O [NBP14, reference compound] (cyclo(AEFHRWSSYMVHWK))
[2]; 10 μg/ml, up to 60 min
  stability in blood: good stability
[2]; UHPLC-TOF MS
  degradants detected: no degradants were detected
[3]
  protection against T30-induced calcium influx: protects against these toxic effects
[4]
  protection against T30-induced AChE activity: protects against these toxic effects
[5]; 4 μM co-perfused with T30 (2 uM)
  blocking of T30-induced deviations from baseline (VSDI): totally block the T30-induced effects
[5]; 4 μM in perfusate, no T30
  change in magnitude (summed fluorescence) of evoked responses, compound alone: small, non-significant alterations
[6]; 10 μg/ml, up to 60 min
  stability in blood: good stability
[6]; UHPLC-TOF MS
  degradants detected: no degradants were detected
